Each structure is given as a SMILES string.

Consider 19 compounds from patent US20220162191A1, “SMALL MOLECULE MODULATORS OF IL-17” (LEO PHARMA A/S, priority 2019, published 2022).

The test addresses T1, human IL-17AA (Homo sapiens, UniProt Q16552).
T1 construct: host or cells: HEK (human embryonic kidney) cells
T1 sequence (Q16552 24-155) 1: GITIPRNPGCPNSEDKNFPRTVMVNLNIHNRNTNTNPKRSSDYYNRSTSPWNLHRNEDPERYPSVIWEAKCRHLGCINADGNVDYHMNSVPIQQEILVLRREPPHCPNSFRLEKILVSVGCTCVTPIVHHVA
T1 sequence (Q16552 24-155) 2: T1 sequence (Q16552 24-155) 1
The experiment in a line: IL-8 release assay in human epithelial keratinocytes adult (HEKa). As to conditions: 3 ng/ml human IL-17AA + 10 ng/ml human TNFalpha, 68-72 h, IL-8 by HTRF, read-out: Rel EC50 L-8 release assay. In kind it is cell-based. How it is done: Example: IL-8 release assay in human epithelial keratinocytes adult (HEKa) Keratinocytes were seeded at 3500 cells/well in 384-well ViewPlates (Perkin Elmer) in Epilife medium (Thermo Fisher) containing human keratinocyte growth supplement (HKGS) without hydrocortisone and incubated in a humid incubator at 37° C., 5% CO2, overnight. The following day growth medium was removed and 25 μl fresh Epilife 10 medium added. 75 nl test compound in 100% DMSO was added into each well reserved
for test compounds, by the use of acoustic pipetting. The remaining wells received an equal volume of DMSO only, as vehicle control, or terfenadine in DMSO, as a positive control for any cytotoxic compounds. Subsequently, another 25 μl Epilife medium was added to each well. Finally, wells containing test compounds and wells prepared to yield 15 maximum stimulation received 25 μl of 9 ng/ml recombinant, human embryonic kidney cell (HEK)-derived human IL-17AA+30 ng/ml human TNF-alpha, in Epilife medium. Wells prepared to define 100% inhibition of IL-17 effects received 25 μl of 30 ng/ml human TNF-alpha alone, in Epilife medium. Final concentrations were 3 ng/ml HEKhuman IL-17AA+10 ng/ml human TNFalpha (maximum stimulation) and 10 ng/ml 20 human TNFalpha alone (100% inhibition, Emax), respectively. Cells were incubated for 68-72 h in the incubator. IL-8 released from the cells was measured by the use of a commercial homogenous time-resolved fluorescence (HTRF) assay (CisBio). 2 μl cell culture supernatant was transferred to a 384-well Proxiplate. 5 μl HTRF reagent was added and the plates incubated sealed in the dark for 3-22 h at room temperature. Time resolved fluorescence was read at 665 vs 620 nm, with excitation at 320 nm, and IL-8 levels calculated as percent of controls. Reduction of the amount of secreted IL-8 indicates decreased IL-17 signaling. Concentration response curves were fitted by the use of a four-parameter logistic equation. Relative IC50 and Emax were reported from 5 curves showing acceptable fit (r2>0.9). Cytotoxicity was measured in the cell-containing
Compounds of the present invention were tested in the IL-8 release assay in human epithelial keratinocytes.
The term EC50 denotes the concentration that produces a half-maximal response. Consider `Cc1n[nH]c(C)c1-c1ccc(NC(=O)[C@@H](NC(=O)C2(F)CC2)[C@@H]2CCc3ccc(-c4cnn(C(C)(C)CO)c4)cc32)cc1` [Example 12, N-[(1S)-2-[4-(3,5-dimethyl-1H-pyrazol-4-yl)anilino]-1-[(1R)-6-[1-(2-hydroxy-1,1-dimethyl-ethyl)pyrazol-4-yl]indan-1-yl]-2-oxo-ethyl]-1-fluoro-cyclopropanecarboxamide], for which the EC50 was below 100 nM.

Consider `Cc1n[nH]c(C)c1-c1ccc(NC(=O)[C@@H](NC(=O)c2ccnn2C)[C@@H]2CCc3ccc(-c4cnn(CC(C)(C)O)c4)cc32)cc1` [Example 13, N-[(1S)-2-[4-(3,5-dimethyl-1H-pyrazol-4-yl)anilino]-1-[(1R)-6-[1-(2-hydroxy-2-methyl-propyl)pyrazol-4-yl]indan-1-yl]-2-oxo-ethyl]-2-methyl-pyrazole-3-carboxamide], for which the EC50 was below 100 nM.

Regarding `Cc1n[nH]c(C)c1-c1ccc(NC(=O)[C@@H](NC(=O)c2ccnn2C)[C@@H]2CCc3ccc(-c4ccnc(C(C)C)c4)cc32)cc1` [Example 14, N-[(1S)-2-[4-(3,5-dimethyl-1H-pyrazol-4-yl)anilino]-1-[(1R)-6-(2-isopropyl-4-pyridyl)indan-1-yl]-2-oxo-ethyl]-2-methyl-pyrazole-3-carboxamide], the EC50 is below 100 nM.

On to `Cc1n[nH]c(C)c1-c1ccc(NC(=O)[C@@H](NC(=O)c2ccnn2C)[C@@H]2CCc3ccc(-c4ccc5c(c4)CCN(C)C5)cc32)cc1` [Example 15, N-[(1S)-2-[4-(3,5-dimethyl-1H-pyrazol-4-yl)anilino]-1-[(1R)-6-(2-methyl-3,4-dihydro-1H-isoquinolin-6-yl)indan-1-yl]-2-oxo-ethyl]-2-methyl-pyrazole-3-carboxamide], for which the EC50 is below 100 nM.

Regarding `Cc1n[nH]c(C)c1-c1ccc(NC(=O)[C@@H](NC(=O)c2ccnn2C)[C@@H]2CCc3ccc(-c4ccnc(C(C)(C)O)c4)cc32)cc1` [Example 16, N-[(1S)-2-[4-(3,5-dimethyl-1H-pyrazol-4-yl)anilino]-1-[(1R)-6-[2-(1-hydroxy-1-methyl-ethyl)-4-pyridyl]indan-1-yl]-2-oxo-ethyl]-2-methyl-pyrazole-3-carboxamide], the EC50 was below 100 nM.

As for `Cc1n[nH]c(C)c1-c1ccc(NC(=O)[C@@H](NC(=O)c2ccnn2C)[C@@H]2CCc3ccc(-c4ccc5c(c4)CCNC5)cc32)cc1` [Example 17, N-[(1S)-2-[4-(3,5-dimethyl-1H-pyrazol-4-yl)anilino]-2-oxo-1-[(1R)-6-(1,2,3,4-tetrahydroisoquinolin-6-yl)indan-1-yl]ethyl]-2-methyl-pyrazole-3-carboxamide], the EC50 is below 100 nM.

As for `Cc1cc(-c2ccc3c(c2)[C@H]([C@H](NC(=O)c2ccnn2C)C(=O)Nc2ccc(-c4c(C)n[nH]c4C)cc2)CC3)ccc1CN1CCOCC1` [Example 18, N-[(1S)-2-[4-(3,5-dimethyl-1H-pyrazol-4-yl)anilino]-1-[(1R)-6-[3-methyl-4-(morpholinomethyl)phenyl]indan-1-yl]-2-oxo-ethyl]-2-methyl-pyrazole-3-carboxamide], the EC50 is below 100 nM.

For `Cc1n[nH]c(C)c1-c1ccc(NC(=O)[C@@H](NC(=O)c2ccnn2C)[C@@H]2CCc3ccc(-c4ccc(CN5CCCC5)cc4)cc32)cc1` [Example 19, N-[(1S)-2-[4-(3,5-dimethyl-1H-pyrazol-4-yl)anilino]-2-oxo-1-[(1R)-6-[4-(pyrrolidin-1-ylmethyl)phenyl]indan-1-yl]ethyl]-2-methyl-pyrazole-3-carboxamide], the EC50 is 100 to 1000 nM.

Consider `Cc1n[nH]c(C)c1-c1ccc(NC(=O)[C@@H](NC(=O)c2ccnn2C)[C@@H]2CCc3ccc(-c4ccc(CN5CCCCC5)cc4)cc32)cc1` [Example 20, N-[(1S)-2-[4-(3,5-dimethyl-1H-pyrazol-4-yl)anilino]-2-oxo-1-[(1R)-6-[4-(1-piperidylmethyl)phenyl]indan-1-yl]ethyl]-2-methyl-pyrazole-3-carboxamide], for which the EC50 lay in the range of 100 to 1000 nM.

Turning to `Cc1n[nH]c(C)c1-c1ccc(NC(=O)[C@@H](NC(=O)c2ccnn2C)[C@@H]2CCc3ccc(-c4ccc(CN5CCC5)cc4)cc32)cc1` [Example 21, N-[(1S)-1-[(1R)-6-[4-(azetidin-1-ylmethyl)phenyl]indan-1-yl]-2-[4-(3,5-dimethyl-1H-pyrazole-4-yl)anilino]-2-oxo-ethyl]-2-methyl-pyrazole-3-carboxamide], the EC50 was below 100 nM.

As for `Cc1n[nH]c(C)c1-c1ccc(NC(=O)[C@@H](NC(=O)c2ccnn2C)[C@@H]2CCc3ccc(-c4cnn(C(C)(C)CN)c4)cc32)cc1` [Example 22, N-[(1S)-1-[(1R)-6-[1-(2-amino-1,1-dimethyl-ethyl)pyrazol-4-yl]indan-1-yl]-2-[4-(3,5-dimethyl-1H-pyrazol-4-yl)anilino]-2-oxo-ethyl]-2-methyl-pyrazole-3-carboxamide], the EC50 lay in the range of 100 to 1000 nM.

With `Cc1n[nH]c(C)c1-c1ccc(NC(=O)[C@@H](NC(=O)C2(F)CC2)[C@@H]2CCc3ccc(-c4ccnc(N5C[C@@H]6C[C@H]5CN6)c4)cc32)cc1` [Example 23, N-[(1S)-1-[(1R)-6-[2-[(1S,4S)-2,5-diazabicyclo[2.2.1]heptan-2-yl]-4-pyridyl]indan-1-yl]-2-[4-(3,5-dimethyl-1H-pyrazol-4-yl)anilino]-2-oxo-ethyl]-1-fluoro-cyclopropanecarboxamide], the EC50 was below 100 nM.

As for `Cc1n[nH]c(C)c1-c1ccc(NC(=O)[C@@H](NC(=O)C2(F)CC2)[C@@H]2CCc3ccc(-c4cnn(C(C)(C)CN)c4)cc32)cc1` [Example 24, N-[(1S)-1-[(1R)-6-[1-(2-amino-1,1-dimethyl-ethyl)pyrazol-4-yl]indan-1-yl]-2-[4-(3,5-dimethyl-1H-pyrazol-4-yl)anilino]-2-oxo-ethyl]-1-fluoro-cyclopropanecarboxamide], the EC50 fell in the range of 100 to 1000 nM.

Consider `CC(C)n1cc(-c2ccc3c(c2)C([C@H](NC(=O)c2ccnn2C)C(=O)Nc2ccc(-c4cncn4C)cc2)CC3)ccc1=O` (stereo partly drawn) [Example 25, N-[(1S)-1-[6-(1-isopropyl-6-oxo-3-pyridyl)indan-1-yl]-2-[4-(3-methylimidazol-4-yl)anilino]-2-oxo-ethyl]-2-methyl-pyrazole-3-carboxamide], for which the EC50 is 100 to 1000 nM.

Regarding `Cc1n[nH]c(C)c1-c1ccc(NC(=O)[C@@H](NC(=O)c2ccnn2C)[C@@H]2CCCc3ccc(-c4cnn(C5CC5)c4)cc32)cc1` [Example 26, N-[(1S)-1-[(1R)-7-(1-cyclopropylpyrazol-4-yl)tetralin-1-yl]-2-[4-(3,5-dimethyl-1H-pyrazol-4-yl)anilino]-2-oxo-ethyl]-2-methyl-pyrazole-3-carboxamide], the EC50 was below 100 nM.

As to `Cc1n[nH]c(C)c1-c1ccc(NC(=O)[C@@H](NC(=O)C2(F)CC2)[C@@H]2CCCc3ccc(-c4ccc(=O)n(C(C)C)c4)cc32)cc1` [Example 27, N-[(1S)-2-[4-(3,5-dimethyl-1H-pyrazol-4-yl)anilino]-1-[(1R)-7-(1-isopropyl-6-oxo-3-pyridyl)tetralin-1-yl]-2-oxo-ethyl]-1-fluoro-cyclopropanecarboxamide], the EC50 was below 100 nM.

Regarding `Cc1n[nH]c(C)c1-c1ccc(NC(=O)[C@@H](NC(=O)C2(F)CC2)[C@@H]2CCCc3ccc(-c4ccnc(N5C[C@H]6C[C@@H]5CO6)c4)cc32)cc1` [Example 28, N-[(1S)-2-[4-(3,5-dimethyl-1H-pyrazol-4-yl)anilino]-1-[(1R)-7-[2-[(1R,4R)-2-oxa-5-azabicyclo[2.2.1]heptan-5-yl]-4-pyridyl]tetralin-1-yl]-2-oxo-ethyl]-1-fluoro-cyclopropanecarboxamide], the EC50 is below 100 nM.

`Cc1n[nH]c(C)c1-c1ccc(NC(=O)[C@@H](NC(=O)C2(F)CC2)[C@@H]2CCCc3ccc(-c4ccnc(N5C[C@@H]6C[C@H]5CO6)c4)cc32)cc1` [Example 29, N-[(1S)-2-[4-(3,5-dimethyl-1H-pyrazol-4-yl)anilino]-1-[(1R)-7-[2-[(1S,4S)-2-oxa-5-azabicyclo[2.2.1]heptan-5-yl]-4-pyridyl]tetralin-1-yl]-2-oxo-ethyl]-1-fluoro-cyclopropanecarboxamide]: the EC50 is below 100 nM.

For the compound `CC(C)n1cc(-c2ccc3c(c2)[C@H]([C@H](NC(=O)c2ccnn2C)C(=O)Nc2ccc(-c4cncn4C)cc2)CCC3)ccc1=O` [Example 30, N-[(1S)-1-[(1R)-7-(1-isopropyl-6-oxo-3-pyridyl)tetralin-1-yl]-2-[4-(3-methylimidazol-4-yl)anilino]-2-oxo-ethyl]-2-methyl-pyrazole-3-carboxamide], the EC50 is below 100 nM.
